Measured values from ChEMBL document CHEMBL1201862, “PubChem BioAssay data set” (2004).
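Test compounds were applied to cells in 96-well plates for 48 hours at 5 doses. GI50 = concentration required for 50% inhibition of growth.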 Activity calls are given as the source filed them. Rule as the data show it: active = GI50 up to about 1.1 µM and inactive = higher.

Legend:
Test in all cases: NCI anticancer screen, dose series, 48 h
[1] = test system: DLD-1
[2] = test system: XF498
[3] = test system: DMS-114
[4] = test system: KM-20L2
[5] = test system: HOP-18
[6] = test system: SNB-78
[7] = test system: M19-MEL
[8] = test system: RXF 631
[9] = test system: LXFL 529

Row | Compound | GI50 [1] | GI50 [2] | GI50 [3] | GI50 [4] | GI50 [5] | GI50 [6] | GI50 [7] | GI50 [8] | GI50 [9]
1 | CN1CCN(c2ccc3[nH]c(-c4ccc5[nH]c(-c6ccc(O)cc6)nc5c4)nc3c2)CC1 | 178 µM (inactive) | 34.4 µM (inactive) | 38.5 µM (inactive) | 158 µM (inactive) | 209 µM (inactive) | 265 µM (inactive) | 18.1 µM (inactive) | – | –
2 | Cc1c(CNc2ccc(Cl)c(C(=O)NC(CC(=O)O)C(=O)O)c2)ccc2nc(N)nc(N)c12 (stereo unspecified) | 0.0631 µM (active) | > 100 µM (inactive) | 0.038 µM (active) | 0.665 µM (active) | > 54.8 µM (inactive) | > 100 µM (inactive) | 13.7 µM (inactive) | – | –
3 | CC(C)S(=O)(=O)ON1C(=O)c2ccc(N(C)C)cc2C1=O | – | 17.7 µM (inactive) | – | 20.4 µM (inactive) | 13.5 µM (inactive) | 31.3 µM (inactive) | – | 13.2 µM (inactive) | 9.91 µM (inactive)
4 | C=C1C(=O)OC2C1CCC(C)C1C=CC(=O)C12C (stereo unspecified) | 1.89 µM (inactive) | 3.29 µM (inactive) | – | 3.61 µM (inactive) | 6.65 µM (inactive) | 3.14 µM (inactive) | 3.36 µM (inactive) | – | 1.58 µM (inactive)
5 | CCCCCCCCCOC(=S)NC | 16.6 µM (inactive) | 18.2 µM (inactive) | – | 18 µM (inactive) | 19.6 µM (inactive) | – | 23.4 µM (inactive) | 21 µM (inactive) | 17.8 µM (inactive)
6 | NNC(=O)CCC(=O)Nc1ccc(Cl)cc1Cl | > 100 µM (inactive) | > 100 µM (inactive) | > 100 µM (inactive) | > 100 µM (inactive) | – | > 100 µM (inactive) | > 100 µM (inactive) | > 100 µM (inactive) | 29.7 µM (inactive)
7 | O=[N+]([O-])c1cccc(/C=N\NS(=O)(=O)c2ccc(Cl)cc2)c1O | 55.5 µM (inactive) | – | – | > 100 µM (inactive) | 37.1 µM (inactive) | > 100 µM (inactive) | > 100 µM (inactive) | > 100 µM (inactive) | 83.6 µM (inactive)
8 | O=C(c1ccccc1)[C@H]1Nc2cnccc2C2c3ccccc3CC21 (stereo partly specified) | 7.01 µM (inactive) | 23.7 µM (inactive) | 10 µM (inactive) | 21.2 µM (inactive) | 5.6 µM (inactive) | 15.5 µM (inactive) | 8.3 µM (inactive) | 19.9 µM (inactive) | 4.38 µM (inactive)
9 | Cc1cc(Cl)ccc1NC(=O)C(=O)Cc1nc2ccc(C(=O)c3ccccc3)cc2nc1O | > 100 µM (inactive) | > 100 µM (inactive) | 33.4 µM (inactive) | > 100 µM (inactive) | > 100 µM (inactive) | – | > 100 µM (inactive) | – | 48.6 µM (inactive)
10 | COC(=O)N/N=C/c1oc(-c2cccc([N+](=O)[O-])c2)c(-c2cccc([N+](=O)[O-])c2)c1[N+](=O)[O-] | > 100 µM (inactive) | > 100 µM (inactive) | – | > 100 µM (inactive) | > 100 µM (inactive) | – | > 100 µM (inactive) | – | > 100 µM (inactive)
11 | CN1C(c2ccccc2)CC(C)(O)CC1c1ccccc1 (stereo unspecified) | > 100 µM (inactive) | – | > 100 µM (inactive) | > 100 µM (inactive) | – | > 100 µM (inactive) | > 100 µM (inactive) | > 100 µM (inactive) | > 100 µM (inactive)
12 | CC(=O)OC(OC(C)=O)c1ncccc1C(=O)OC(C)C | 31.2 µM (inactive) | > 100 µM (inactive) | > 100 µM (inactive) | 39.6 µM (inactive) | > 100 µM (inactive) | > 100 µM (inactive) | 30.1 µM (inactive) | – | 78.5 µM (inactive)
13 | N=C(N)NCCCC(Nc1c2ccccc2[n+]([O-])c2ccccc12)C(=O)O (stereo unspecified) | 28.4 µM (inactive) | – | 23.6 µM (inactive) | 95.7 µM (inactive) | 33.3 µM (inactive) | – | 44.7 µM (inactive) | > 100 µM (inactive) | 22.5 µM (inactive)
14 | O=CC1CCCc2ccccc21 (stereo unspecified) | > 43.1 µM (inactive) | > 100 µM (inactive) | > 47.3 µM (inactive) | > 100 µM (inactive) | > 100 µM (inactive) | > 100 µM (inactive) | > 100 µM (inactive) | – | > 100 µM (inactive)
